Assay results published in patent US5437864A, “Method of inhibiting blood coagulation in extracorporeal circulation by inhibiting human tissue factor” (The Scripps Research Institute, priority 1992, dated 1995).
Like-named read-outs stand apart in the source and are kept apart here. No end group written: not given here.

Legend:
factor VII/VIIa [1] = molecular target: T1, factor VII/VIIa (Homo sapiens, UniProt P08709); experiment: Inhibition of huTF-initiated coagulation by polypeptide analogs of huTFh; assay type: biochemical; details: for inhibition of huTF-initiated coagulation, dose-response (FIG. 12): non-lipidated polypeptides, various concentrations
T1 construct: from tissue
T1 sequence (P08709 61-466): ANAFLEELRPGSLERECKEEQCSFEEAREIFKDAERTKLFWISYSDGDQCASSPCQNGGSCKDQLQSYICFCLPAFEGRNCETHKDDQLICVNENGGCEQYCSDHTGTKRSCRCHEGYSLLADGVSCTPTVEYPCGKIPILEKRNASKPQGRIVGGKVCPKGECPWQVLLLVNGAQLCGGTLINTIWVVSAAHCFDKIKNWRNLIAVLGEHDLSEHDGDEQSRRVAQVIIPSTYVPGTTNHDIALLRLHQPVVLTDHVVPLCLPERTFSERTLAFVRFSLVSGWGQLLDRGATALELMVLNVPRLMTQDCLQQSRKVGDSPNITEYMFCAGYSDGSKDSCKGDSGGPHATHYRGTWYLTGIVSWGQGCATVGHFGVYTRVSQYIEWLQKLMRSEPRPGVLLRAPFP
Description: The ability of the polypeptides of the present invention to inhibit huTF-initiated coagulation were assayed by first incubating the polypeptides in the presence of factor VII/VIIa and calcium ions, and then adding this mixture to factor VII/VIIa-deficient plasma and evaluating clotting times.
Human factor VII/VIIa was isolated as described in Example 3. Ten microliters of a solution of 200 ng of this isolated factor VII/VIIa per ml of HBS/BSA was added to a solution comprising 100 ul of HBS, 20 ul of 25 mM CaCl2, and with 100 ul of TBS/Triton containing synthetic polypeptide. Numerous admixtures were so prepared which contained varying concentrations of the polypeptide and were then maintained at 37 degrees C. for 15 minutes. Relipidated tissue factor prepared as described in Example 4 was diluted in HBS/BSA such that 10 ul would yield a coagulation time of approximately 45 seconds when tested in the coagulation assay described in Example 2. The above maintained admixture was further admixed with this 10 ul dilution of relipidated huTF, with 100 ul of 25 mM CaCl2, and with 100 ul of factor VII/VIIa-deficient plasma (George King Bio-Medical, Inc., Overland Park, Kans.) diluted 1 part plasma to 1.5 parts HBS. The clotting time was then determined and plotted as described in Example 2. A prolongation of clotting time was taken to indicate inhibition of coagulation by the synthetic polypeptide. Percent inhibition was calculated as described in Example 10. Polypeptides producing at least a 30% inhibition of coagulation were considered huTFh binding site polypeptide analogs, i.e., polypeptides p26-49, p146-167 and p161-189 as shown in section I of Table 4.
Lipidated synthetic peptides were prepared in the manner described in Example 4 for relipidation of isolated huTF except that synthetic polypeptide was substituted for isolated huTF. The ratio 52 to 1 of lipid to polypeptide (w/w) was routinely utilized. Lipidated polypeptides producing at least 30% inhibition of coagulation were considered huTFh binding site polypeptide analogs, when present in lipidated form, i.e., those polypeptides shown in section II of Table 4.
The results of this study are shown in FIG. 12 and indicate that p24-35 and p152-169 are capable of inhibiting 45% and 25% respectively, of the huTF-initiated coagulation when utilized at 10 uM concentrations. It should be noted that in this study background inhibitions such as for those peptides indicated by a closed circle in FIG. 12 were lower than the study shown in Table 4. As a result, polypeptides producing at least a 20% inhibition of coagulation at a concentration of 10 uM in this study were considered huTF binding site polypeptide analogs.

factor VII/VIIa [2] = molecular target: T1, factor VII/VIIa; experiment: Inhibition of factor X activation on J82 cells by huTFh polypeptides; assay type: cell-based; details: for Optical Density: O.D. at 405 nm of factor Xa chromogenic product, 50 ul polypeptide solution at 100 uM, PBS control 0.960, no factor VII 0.005, significant if about 0.500 or less
Description: Fifty microliters (ul) of a solution containing a huTF polypeptide analog at 100 uM […] in TBS was added to each well of a 96-well of a 96-well flat bottom polystyrene assay plate. Then to each well was admixed 25 ul of a solution containing factor VII/VIIa isolated as described in Example 3 at a concentration of 1 nm in TBS, further admixed with 25 ul of 20 mM calcium chloride in TBS and the resulting admixture is maintained at room temperature for 30 minutes.
Human bladder cell carcinoma J82 cells were obtained from the American Type Culture Collection (ATCC HTB 1; Rockville, Md.) and cultured as described by Fair et al., J. Biol. Chem., 262:11692-11698 (1987) which methods are incorporated herein by reference.
5×10^4 J82 cells are suspended into 50 ul of TBS and admixed to each well of the polystyrene assay plate after the above maintenance period. Immediately thereafter 25 ul of factor X, isolated as described by Fair et al., J. Biol. Chem., 262:11692-11698 (1987), at a concentration of 100 nM in TBS and 50 ul of Xa chromogenic substrate S-2222 (1 mg/ml in TBS) were admixed, and the resulting admixture was maintained for two minutes at room temperature to form a chromogenic reaction product containing solution.
The amount of chromogenic product formed was quantitated by measuring the amount of optical density (O.D.) at 405 nanometers (nm) using a V-max 96 well spectrophotometer (Molecular Devices, Mountain View, Calif.). Controls with PBS in place of polypeptide or with no factor VII added were also run to establish the maximum and minimum possible O.D. values.

baboon TF = details: Taylor et al., J. Clin. Invest. (1987); cited from earlier work
TF = details: Pitlick, J. Clin. Invest., 55:175 (1975); cited from earlier work
[3] = phospholipidated peptides, 10 μM
[4] = non-phospholipidated peptides, 10 μM, read-out: Inhibition (Percent Inhibition of huTF-initiated coagulation)
[5] = Example 17 study (FIG. 12), non-lipidated, 10 uM, read-out: inhibition of huTF-initiated coagulation
[6] = phospholipidated peptides, 10 μM, read-out: Inhibition (Percent Inhibition of huTF-initiated coagulation)
[7] = non-phospholipidated peptides, 10 μM

Optical Density (factor VII/VIIa [2])	inhibition at 10 µM (factor VII/VIIa [1]; [4]) [%]	Substance	other results
0.814 ± 0.053	–	H--TKSGDWKSKCFYTTDTECDLTDEIVKDVKQTY--OH (H-TKSGDWKSKCFYTTDTECDLTDEIVKDVKQTY-OH; cysteine pairing not given here) [p40-71]	inhibition of huTF-initiated coagulation, dose-response (FIG. 12) (factor VII/VIIa [1]): no substantial inhibition; Inhibition (Percent Inhibition of huTF-initiated coagulation) (factor VII/VIIa [1]; [3]): 65.0%
0.715 ± 0.042	20	H-DSPVECMGQEKGEFREIFYIIGA-OH [p204-226]	–
–	25	H-ECDLTDEIVKDVKQTY-OH [p56-71, H--ECDLTDEIVKDVKQTY--OH]	–
0.437 ± 0.020	–	H-EPKPVNQVYTVQISTKSGDWKSKC-OH [p26-49]	binding to factor VII/VIIa and inhibition of factor X activation (factor VII/VIIa [2]): bind to factor VII/VIIa and inhibit its ability to form a TF:VII/VIIa complex that can activate factor X
0.477 ± 0.017	–	H-EWEPKPVNQVYT-OH [p24-35, H--EWEPKPVNQVYT--OH]	inhibition at 10 µM (factor VII/VIIa [1]; [5]): 45%; binding to factor VII/VIIa and inhibition of factor X activation (factor VII/VIIa [2]): bind to factor VII/VIIa and inhibit its ability to form a TF:VII/VIIa complex that can activate factor X
–	–	H-IYTLYYWKSSSSGKKTAK-OH [p152-169, H--IYTLYYWKSSSSGKKTAK--OH]	inhibition at 10 µM (factor VII/VIIa [1]; [5]): 25%
0.781 ± 0.047	25	H-LARVFSYPAGNVESTGSAGEPLYENSPEFTPYLC-OH [p72-104]	inhibition of huTF-initiated coagulation, dose-response (FIG. 12) (factor VII/VIIa [1]): no substantial inhibition
0.625 ± 0.031	20	H-QAVIPSRTVNRKSTDSPVEC-OH [p190-209]	–
0.507 ± 0.053	–	H-RDVFGKDLIYTLYYWK-OH [p144-159, H--RDVFGKDLIYTLYYWK--OH]	binding to factor VII/VIIa and inhibition of factor X activation (factor VII/VIIa [2]): bind to factor VII/VIIa and inhibit its ability to form a TF:VII/VIIa complex that can activate factor X
1.098 ± 0.028	25	H-SGTTNTVAAYNLTWKSTNFKTILEWEPKPV-OH [p1-30]	inhibition at 10 µM (factor VII/VIIa [1]; [6]): 81%
–	≥ 30	H-SSSGKKTAKTNTNEFLIDVDKGENYCFSV-OH [p161-189]	inhibition of huTF-initiated coagulation, dose-response (FIG. 12) (factor VII/VIIa [1]): no substantial inhibition; inhibition at 10 µM (factor VII/VIIa [1]; [6]): 94%
0.889 ± 0.067	10	H-TKVNVTVEDERTLVRRNNTFLSLRDVFGKDLIYTL-OH [p121-155]	inhibition at 10 µM (factor VII/VIIa [1]; [6]): 55%
0.004 ± 0.001	–	H-VFGKDLIYTLYYWKSSSSGKKT-OH [p146-167]	inhibition at 10 µM (factor VII/VIIa [1]; [6]): 80%; binding to factor VII/VIIa and inhibition of factor X activation (factor VII/VIIa [2]): bind to factor VII/VIIa and inhibit its ability to form a TF:VII/VIIa complex that can activate factor X
0.818 ± 0.055	20	H-YENSPEFTPYLETNLGQPTIQSFEQVGTKV-OH [p94-123]	inhibition of huTF-initiated coagulation, dose-response (FIG. 12) (factor VII/VIIa [1]): no substantial inhibition; inhibition at 10 µM (factor VII/VIIa [1]; [6]): 93.7%
0.389 ± 0.035	–	H-YWKSSSSGKKTAK-OH [p157-169, H--YWKSSSSGKKTAK--OH]	binding to factor VII/VIIa and inhibition of factor X activation (factor VII/VIIa [2]): bind to factor VII/VIIa and inhibit its ability to form a TF:VII/VIIa complex that can activate factor X
–	–	activated protein C	coagulopathic response and lethal effects of LD100 concentrations of E. coli in baboons (baboon TF): prevents the coagulopathic response and lethal effects
–	–	concanavalin A	inhibition of TF activity (TF): inhibits TF activity
1.007 ± 0.087	–	p1-18: huTFh polypeptide; designation represents included residues of FIG. 1; sequence not printed (SGTTNTVAAYNLTWKSTN; UniProt P13726 33-50, looked up, fragment)	–
0.687 ± 0.071	–	p11-28: huTFh polypeptide; designation represents included residues of FIG. 1; sequence not printed (NLTWKSTNFKTILEWEPK; UniProt P13726 43-60, looked up, fragment)	–
–	–	p26-40: phospholipidated huTFh polypeptide analog of Table 4; sequence not printed; probably p26-49 (EPKPVNQVYTVQIST; also: phospholipidated (position not given here); UniProt P13726 58-72, looked up, fragment)	Inhibition (Percent Inhibition of huTF-initiated coagulation) (factor VII/VIIa [1]; [3]): 83.0%
–	–	p40-49: huTFh polypeptide analog of Table 4; sequence not printed; probably p41-49 (TKSGDWKSKC; UniProt P13726 72-81, looked up, fragment)	Inhibition (Percent Inhibition of huTF-initiated coagulation) (factor VII/VIIa [1]; [7]): 25.0%
–	–	p41-71: huTFh polypeptide analog of Table 4; sequence not printed; probably p40-71 (KSGDWKSKCFYTTDTECDLTDEIVKDVKQTY; UniProt P13726 73-103, looked up, fragment)	Inhibition (Percent Inhibition of huTF-initiated coagulation) (factor VII/VIIa [1]; [7]): 25.0%
–	–	p50-71: phospholipidated huTFh polypeptide analog of Table 4; sequence not printed; probably p56-71 (FYTTDTECDLTDEIVKDVKQTY; also: phospholipidated (position not given here); UniProt P13726 82-103, looked up, fragment)	Inhibition (Percent Inhibition of huTF-initiated coagulation) (factor VII/VIIa [1]; phospholipidated peptides, 30 μM): 73.3%
0.600 ± 0.023	–	p161-190: huTFh polypeptide of Table 10; sequence not printed; probably p161-189 (SSSGKKTAKTNTNEFLIDVDKGENYCFSVQ; UniProt P13726 193-222, looked up, fragment)	–
0.619 ± 0.047	–	p244-263: huTFh polypeptide of Table 10; sequence not printed; probably p245-263 (KCRKAGVGQSWKENSPLNVS; UniProt P13726 276-295, looked up, fragment)	–
